For series [1], the system named is barnyardgrass (Echinochloa crus-galli). Description: Test A preemergence. It counts as in vivo. The following applies: Echinochloa crus-galli, pre-emergence, 240 h, 0 to 100 scale (0 no effect, 100 complete control), read-out: Plant response rating, Barnyardgrass; for pest or weed control at 500 g/ha: 500 g ai/ha, preemergence; for pest or weed control at 125 g/ha: Preemergence, 125 g ai/ha. In outline: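 Treatment is preemergence as a directed soil spray after planting, or postemergence at the one- to two-leaf stage, with test chemical in a non-phytotoxic solvent mixture plus surfactant. Plants stay in the greenhouse about 10 d before visual injury scoring on a 0 to 100 scale versus untreated controls.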

For series [2] the test system is unchanged. Description: Test B flooded paddy test. The series is classed as in vivo. The following applies: Echinochloa crus-galli, 360 h, Flood, 250 g ai/ha; visually evaluated after 13 to 15 d; read-out: Plant response rating, Barnyardgrass (0 to 100 scale where 0 is no effect and 100 is complete control). Put shortly: (§1)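 Rating scale 0–100 (visual, vs untreated controls) after a 13–15 d greenhouse period; application to the flood layer, 3 cm above soil and maintained; plants at 2-leaf stage when treated.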

Series [3] concerns ducksalad (Heteranthera limosa). Description: Test B flooded paddy test. The series is classed as in vivo. The following applies: Heteranthera limosa, 360 h, Flood, 250 g ai/ha; visually evaluated after 13 to 15 d; read-out: Plant response rating, Ducksalad (0 to 100 scale where 0 is no effect and 100 is complete control). Put shortly:
as §1

Another series relates to rice (Oryra sativa). Description: Test B flooded paddy test. It counts as in vivo. Conditions: Oryza sativa, 360 h, Flood, 250 g ai/ha; visually evaluated after 13 to 15 d; read-out: Plant response rating, Rice (0 to 100 scale where 0 is no effect and 100 is complete control). Put shortly:
as §1

The subject of series [4] is sedge, umbrella (small-flower umbrella sedge, Cyperus difformis). Description: Test B flooded paddy test. It counts as in vivo. Conditions: Cyperus difformis, 360 h, Flood, 250 g ai/ha; visually evaluated after 13 to 15 d; read-out: Plant response rating, Sedge, Umbrella (0 to 100 scale where 0 is no effect and 100 is complete control). Put shortly: as §1

Each structure is given as a SMILES string.

One may read the melting point as the temperature of the solid-liquid transition.

`O=C1NC[C@H](c2nccc(C(F)(F)F)n2)[C@H]1C(=O)Nc1cccc(F)c1F` [Compound 1392] had a melting point of 154 to 158 °C. In series [1], the pest or weed control at 500 g/ha is 60% and the pest or weed control at 125 g/ha amounted to 0%. For the same molecule, the pest or weed control at 250 g/ha in series [2] worked out at 0%. Moreover, the pest or weed control at 250 g/ha in series [3] was found to be 30%. For the same molecule, the pest or weed control at 250 g/ha in the series on rice (Oryra sativa) came out at 0%. Moreover, the pest or weed control at 250 g/ha in series [4] worked out at 0%.

`Cc1c(F)cccc1NC(=O)[C@H]1C(=O)N(C)C[C@@H]1c1ccc(C(F)(F)F)cc1` [Compound 1386]: the melting point lay within 156 to 160 °C. In series [1], the pest or weed control at 500 g/ha came to 100% and the pest or weed control at 125 g/ha worked out at 90%. Moreover, the pest or weed control at 250 g/ha in series [2] was determined as 55%. The pest or weed control at 250 g/ha in series [3] was 100%. Also, the pest or weed control at 250 g/ha with rice (Oryra sativa) was 0%. Moreover, in series [4], the pest or weed control at 250 g/ha stood at 0%.

The values are drawn from patent publication US12077503B2, “Substituted cyclic amides and their use as herbicides” (FMC CORPORATION, priority 2015, dated 2024).
